Source: patent US8802662B2, “Anti-hepatitis C composition and method for preparing drug for inhibiting hepatitis C viruses or treating hepatitis C” (Industrial Technology Research Institute, priority 2009, dated 2014)
In brackets after ≈: the same amount, converted by molar mass.

Legend:
[1] = test system: HCV replicon (I389luc-ubi-NS3-3′/ET) in Huh-luc/neo-ET cell; assay: HCV replication inhibition by firefly luciferase activity in Huh-luc/neo-ET cells (HCV replicon system); conditions: for IC50 / IC90: Hepatitis C virus, Huh-luc/neo-ET, 48 h; for IC50: read-out: IC50: 50% of the HCV replication inhibition concentration, Huh-luc/neo-ET cells, luciferase activity, co-cultured 2 days; for IC90: read-out: IC90: 90% of the HCV replication inhibition concentration; for IC50: 50% of the HCV replication inhibition concentration: Huh-luc/neo-ET cells, luciferase activity, co-cultured 2 days; for EW (effect window, CC50/IC50): ratio of CC50 to IC50 in Huh-luc/neo-ET cells
Text: The Huh-luc/neo-ET cell has I389luc-ubi-NS3-3′/ET replicon and could be used to monitor the replicative capability of the HCV. The Huh-luc/neo-ET is able to express a firefly luciferase-ubiquitin-neomycin fusion protein translated by the internal ribosomal entry site (IRES) of the hepatitis C virus and is able to express the hepatitis C viral nonstructural protein (NS3-5B) including protease, helicase and polymerase translated by the IRES of the encephalomyocarditis virus (EMCV). When the replication complex composed of the IRES of the hepatitis C virus or the nonstructural protein of the hepatitis C virus is influenced by a candidate, the effect of the candidate for inhibiting the activity of the hepatitis C virus repilcon can be estimated by determining the intensity of the firefly luciferase activity. The hepatitis C virus inhibition effect of the limonoid compound can be determined by determining the firefly luciferase activity expressed by the Huh-luc/noe-ET cell in presence of the limonoid compound.
5.96 g of chuanlianzi ethanol extract was dissolved in 20 ml of a mixture of methanol and water and extracted with 15 ml of n-hexane, diethyl ether, dichloromethane and ethyl acetate for 2-3 times, respectively to obtain an n-hexane layer extraction solution, diethyl ether layer extraction solution, dichloromethane layer extraction solution and ethyl acetate layer extraction solution, respectively. Each layer extraction solution was concentrated and dried to obtain an n-hexane layer extract, diethyl ether layer extract, dichloromethane layer extract and ethyl acetate layer extract, respectively. The hepatitis C inhibition activity of each layer extract was determined by using a Huh-luc/neo-ET cell (HCV replication system) for testing thereof.
The Huh-luc/neo-ET cells were co-cultured with toosendanin with concentrations of 0.15 μg/ml, 0.075 μg/ml, 0.038 μg/ml, 0.019 μg/ml and 0.0085 μg/ml, respectively for 2 days and then were washed twice by 100 μl of 1×PBS (1 mM KH2PO4, 10 mM Na2HPO4, 137 mM NaCl, 2.7 mM KCl) and PBS was removed. 35 μl of 1× passive lysis buffer (Promega, E1941) was added to the cells and vortexed by a vortexer for 10 minutes to thoroughly mix the cells.
Cell suspension with an amount of 30 μl/well was added to a 96 well white plate(NUNC, 236108) for measuring luciferase activity, and 40 μl/well of luminescence analysis buffer and 20 μl/well of luminescence substrate (1 mM D-Luciferin) were sequentially added into the 96 well white plates. After the substrate was added, a microplate luminescence meter (Berthold, MPL4) was used to measure the luciferase activity (Rlu/s).
The luciferase activity of the control group was used as a standard to calculate the hepatitis C virus inhibition rates (%) of the experiment groups. The formula of inhibition rates (%) was: {[(luciferase activity of control group)−(luciferase activity of experiment group)]/(luciferase activity of control group)}×100%. After the sample was serial diluted and the HCV replication inhibition rates were determined at different concentrations, 50% of the HCV replication inhibition concentration (IC50) was calculated by grafit5 software (Erithacus Software).
For each experiment, except for the PEG IFN alpha-2a with concentrations of 0.5 ng/ml and 0.1 ng/ml were used as positive controls for the IC50 test. Additionally, cyclosporine A (CsA) with a concentration of 1 μg/ml was also used as a positive control for the IC50 test.
The experiment procedure was the same as Example 2 while the testing sample was replaced with Trichilin H. The Huh-luc/neo-ET cells were co-cultured with Trichilin H with concentrations of 0.75 μg/ml, 0.5 μg/ml, 0.25 μg/ml and 0.125 μg/ml, respectively.

Huh-luc/neo-ET cells = assay: in vitro; assay type: cell-based; conditions: MTT, culturing for two days; for CC15: 15% of the cell cytotoxic concentration: from trend line formula (y = 85)
Description: (§1) Huh-luc/neo-ET cells with concentration of 2.5×10^4 cells/100 μl/well were seeded into a 96 well culture plate (Corning Incorporation COSTAR, 3599) and placed into a cell incubator for culturing.
(§2) The next day, a toosendanin sample was diluted with a DMEM culture medium to the concentrations of 28.73 μg/ml, 9.57 μg/ml, 3.19 μg/ml, 1.06 μg/ml, 0.35 μg/ml, 0.11 μg/ml, 0.039 μg/ml and 0.013 μg/ml, respectively, or to become the concentrations of 114.92 μg/ml, 38.33 μg/ml, 12.77 μg/ml, 4.25 μg/ml, 1.42 μg/ml, 0.46 μg/ml, 0.16 μg/ml and 0.057 μg/ml, respectively. The initial medium in the 96 well culture plate was sucked out by a vacuum pump (DOAT-704AA) without removing the cells. Then, the toosendanin culture medium with concentrations mentioned above were added into the 96 well culture plate containing cells with amount of 100 μl/well as experiment groups while untreated culture medium were added to the cells as a control group.
(§3) Then, PBS was removed and 50 μl of medium containing MTT (Sigma, M2128) with a concentration of 0.5 mg/ml was added into each well of the 96 well culture plate. After the 96 well culture plate was placed in a CO2 culture incubator for 1 hour, DMSO (Riedel-de Haën, 60153) with amount of 150 μl/well was added into the 96 well culture plate and vortexed by a votexer (KS shaker Type 670) to thoroughly mix the resulting purple precipitate. After the purple precipitate was thoroughly mixed, the 96 well culture plate was placed in a continuous wave length microwell plate analysis system (Molecular Devices, SPECTRAMAX 190) to measure the absorbance of cells at 560 nm.
(§4) The average absorbance of the control groups was used as 100% of the cell survival rates (%) to calculate the cell survival rates (%) of the experiment groups with different concentrations of toosendanin samples. The formula of the cell survival rate was: (absorbance of experiment group/absorbance of the control group)×100%. The cell survival rates of all experiment groups were drawn to form an x-y graph and thus a trend line formula with R^2 value greater than 0.9 was obtained.
(§5) In the trend line formula, when y was 50, the resulting X meant 50% of the cell cytotoxic concentration (CC50) or when y was 85, the resulting X meant 15% of the cell cytotoxic concentration (CC15). Due to the property of the sample, CC15 was calculated from the trend line formula generated by the experiment groups containing samples with concentrations of 3.19 μg/ml, 1.06 μg/ml, 0.35 μg/ml, 0.11 μg/ml and 0.039 μg/ml.
(§6) When the cell survival rates (%) was greater than 85%, it meant that the sample at or less than the concentration (the concentration less than CC15) was non-cytotoxic. […]

in vitro = assay type: cell-based; conditions: human, Huh-luc/neo-ET cells, MTT, culturing for two days; read-out: CC50: 50% of the cell cytotoxic concentration
Description: as §1, §2, §3, §4, §5, §6

For CC(=O)O[C@@H]1C[C@H](O)[C@@]23CO[C@@H](O)[C@]1(C)[C@@H]2C[C@@H](O)[C@]1(C)[C@@H]3C(=O)[C@H](OC(C)=O)[C@@]2(C)[C@H](c3ccoc3)C[C@H]3O[C@]321 [Toosendanin, toosendanin], the IC50 [1] was under 0.05 µg/mL, the IC90 [1] was 0.35 µg/mL (≈ 0.609 µM) and the “IC50: 50% of the HCV replication inhibition concentration” value [1] was 0.045 ± 0.004 µg/mL. For the same compound, the “EW (effect window, CC50/IC50)” value [1] was over 2531.6, the “EW (effect window, CC50/IC50)” value ([1]; listed as toosendanin) was “greater than 2500” and the “CC50: 50% of the cell cytotoxic concentration” value (Huh-luc/neo-ET cells) was over 114 µg/mL. The “CC15: 15% of the cell cytotoxic concentration” value (Huh-luc/neo-ET cells) was 0.34 µg/mL.
In the case of CC(=O)OC1C(OC(C)=O)C2(C)C(OC(=O)C(C)C)OCC3(C1O)C2CC(O)C1(C)C3C(=O)C(OC(C)=O)C2(C)C(c3ccoc3)CC3OC321 (stereo not drawn) [Trichilin H], the IC50 [1] is reported as under 0.5 µg/mL, the IC90 [1] is reported as 0.9 µg/mL (≈ 1.28 µM) and the “IC50: 50% of the HCV replication inhibition concentration” value [1] is reported as 0.48 ± 0.10 µg/mL. For the same compound, the CC50 (in vitro) was over 50 µg/mL and the “CC15: 15% of the cell cytotoxic concentration” value (Huh-luc/neo-ET cells) was 0.7 µg/mL.
